EP2735303A1, “Hair growth compositions and methods” (Pilosciences, priority 2012, dated 2014)

What was measured:
[1] = test system: isolated human hair follicles; test: Hair growth of isolated human hair follicles maintained in vitro (morphometric study); assay type: cell-based; conditions: versus no application and Minoxidil 2% 10 µmol; application 2h00 at 37°C; length at D0, D4, D6, D8
Experimental: Hair growth is measured using standard morphometric studies on isolated human hair follicles maintained in vitro (Philpott, 1999). Hair follicles are micro-dissected in a human scalp and maintained in a culture medium. Hair follicles in anagen phase are selected for the study. Each tested group is composed of 10-12 hair follicles.

[2] = test system: human skin explants; test: Morphology of the hair follicle in human skin explants ex vivo after topical application (histology); assay type: cell-based; parameters: key to Upper part (quotation of morphological alterations) / Sebaceous gland (quotation of morphological alterations): -: no alteration; +: weak; ++: moderate; +++: significant; ++++: very significant; +++++: strong
Experimental: Anti-HGP antibodies were produced (see example A) or obtained from commercially available sources, and investigated for their ability to inhibit body hair growth ex vivo using human skin explants.
The activity of the antibodies was assessed based on their effect on the morphology and growth of the body hair.
The activity of keratinase A (Sigma) was investigated in parallel. Eflornithin (Calbiochem) was used as a reference.
40 explants of a diameter of about 11 mm (± 1 mm) were obtained by abdominoplasty from 2 men. The explants were placed in survival in the BEM (BIO-EC's Explants Medium) at 37° C in a humid atmosphere enriched with 5% CO2.
The treatment was performed at D0, D1, D4, D6 and D8 by topical application of 5 µl of diluted antibody used at final concentrations of 30 to 100 µg/mL in PBS. Eflornithin was used at a concentration of 100 mg/mL and keratinase at 20 mg/mL. A negative control experiment was performed using PBS only.
At D0, T0 lot explants were removed and cut in half. Half was fixed in buffered formalin and the other half was frozen at -80 ° C. A D8, 2 explants from each batch were taken and treated in the same manner.
After 24 hours of fixation in buffered formalin, the samples were dried and impregnated with paraffin using an automatic dehydration Leica TP 1010 according to the procedure MO-H-149, according to our procedure using a station coating Leica EG 1160. Sections of 5 microns were performed, using a microtome kind Minot, Leica RM 2125 and mounted on silanized glass slides Superfrost ® plus. Microscopic observations were performed by microscopy optical transmission. The shots were taken with a Leica Orthoplan DMLB or with a digital camera Olympus DP72 driven software acquisition and archiving Olympus CellD. The morphology was examined on paraffin sections stained with Masson's trichrome Goldner variant.

Question: For NCCC[C@](N)(C(=O)O)C(F)F [R1, α-difluoromethylornithine], which “Hair growth compared to Control Group 0 and to Control Group M” value [1] is on record?
Answer: The value was “significant hair growth retardation”.

Question: And the “Bulb: morphology” value ([2]; D8, topical application)?
Answer: The value was “comparable to that observed in the untreated group D8”.

Question: And the “Lower part of the hair follicle: morphology” value ([2]; D8, topical application)?
Answer: Its value is “very slight cell alterations”.

Question: And the “Midsection, sebaceous glands: morphology of inner and outer root sheaths” value ([2]; D8, topical application)?
Answer: The value was “clear cellular alterations”.

Question: And the “Upper part, near the infundibulum: morphology of the epithelial sheaths” value ([2]; D8, topical application)?
Answer: Its value is “sharp cellular alterations”.

Question: And the “morphology of the epidermis” value ([2]; D8, topical application)?
Answer: Its value is “slightly altered with a slight spongiosis”.

Question: What about the “Sebaceous gland (quotation of morphological alterations)” value ([2]; sebaceous gland region of the hair follicle, topical application D0, D1, D4, D6, D8, antibodies 30 to 100 µg/mL in PBS, Eflornithin 100 mg/mL, keratinase 20 mg/mL, D8) of the same compound?
Answer: The value was “++++”.

Question: And the “Upper part (quotation of morphological alterations)” value ([2]; upper part of the hair follicle near the infundibulum, topical application D0, D1, D4, D6, D8, antibodies 30 to 100 µg/mL in PBS, Eflornithin 100 mg/mL, keratinase 20 mg/mL, D8)?
Answer: The value was “++++”.
